According to US20030109443A1, “Diagnosing, treating, and preventing cancer using cables” (priority 2001, published 2003):

Legend:
[1] = system: Cables mRNA levels in Ishikawa cells; test: Cables mRNA after hormone treatment, Ishikawa cells; type: cell-based; details: vs untreated controls
Method: (§1) Cell lines have been used to investigate the effect of hormonal regulation on Cables expression, as well as the effect of Cables overexpression on these cells. We have isolated RNA and protein from HES, Ishikawa, and SK-UT2 endometrial cells lines for analysis. The influence of progesterone and estrogen on Cables expression was evaluated in these cells. […] Western analysis confirmed that a protein product was present. Conversely, estrogen reduced the levels of Cables mRNA expression in these cell lines (FIG. 16A). There is was no hormonal effect on Cables mRNA expression in SK-UT2 cells, which are derived from a G3 human uterine cancer (FIGS. 15B and 16B).

[2] = system: Cables mRNA levels in HES cells; test: Northern analysis of Cables mRNA after hormone treatment, HES cells; type: cell-based, human; details: vs untreated controls
Text: FIGS. 15A and 15B are images showing northern analysis of Cables mRNA levels in HES cells (FIG. 15A) and SK-UT2 cells (FIG. 15B) following progesterone treatment.
FIGS. 16A and 16B are images showing northern analysis of Cables mRNA levels in HES cells (FIG. 16A) and SK-UT2 cells (FIG. 16B) following progesterone or estrogen treatment.
as §1

cdk2 = cdk2 (UniProt P24941); test: cell-based or functional assay

Sequence of Wee1 (P30291 whole entry): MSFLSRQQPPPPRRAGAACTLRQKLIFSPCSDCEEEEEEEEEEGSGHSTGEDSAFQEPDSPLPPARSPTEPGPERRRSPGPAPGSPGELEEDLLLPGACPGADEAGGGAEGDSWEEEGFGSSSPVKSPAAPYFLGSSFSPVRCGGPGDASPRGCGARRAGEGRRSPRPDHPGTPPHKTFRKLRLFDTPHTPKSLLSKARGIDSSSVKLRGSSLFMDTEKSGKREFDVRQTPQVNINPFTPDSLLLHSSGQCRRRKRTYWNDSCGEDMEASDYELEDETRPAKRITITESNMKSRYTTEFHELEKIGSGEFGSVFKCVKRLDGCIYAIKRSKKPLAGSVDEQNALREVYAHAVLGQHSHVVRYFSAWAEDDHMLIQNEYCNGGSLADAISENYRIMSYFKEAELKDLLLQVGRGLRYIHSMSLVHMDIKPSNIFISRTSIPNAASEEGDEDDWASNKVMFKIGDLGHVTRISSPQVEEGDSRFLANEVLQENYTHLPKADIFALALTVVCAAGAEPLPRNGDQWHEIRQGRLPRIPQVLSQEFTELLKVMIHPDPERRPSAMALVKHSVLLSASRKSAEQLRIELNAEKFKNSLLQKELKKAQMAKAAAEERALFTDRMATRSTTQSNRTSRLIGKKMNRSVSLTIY
Sequence of Cables (full length, expressed from a transfected construct) (Q9ESJ1 whole entry): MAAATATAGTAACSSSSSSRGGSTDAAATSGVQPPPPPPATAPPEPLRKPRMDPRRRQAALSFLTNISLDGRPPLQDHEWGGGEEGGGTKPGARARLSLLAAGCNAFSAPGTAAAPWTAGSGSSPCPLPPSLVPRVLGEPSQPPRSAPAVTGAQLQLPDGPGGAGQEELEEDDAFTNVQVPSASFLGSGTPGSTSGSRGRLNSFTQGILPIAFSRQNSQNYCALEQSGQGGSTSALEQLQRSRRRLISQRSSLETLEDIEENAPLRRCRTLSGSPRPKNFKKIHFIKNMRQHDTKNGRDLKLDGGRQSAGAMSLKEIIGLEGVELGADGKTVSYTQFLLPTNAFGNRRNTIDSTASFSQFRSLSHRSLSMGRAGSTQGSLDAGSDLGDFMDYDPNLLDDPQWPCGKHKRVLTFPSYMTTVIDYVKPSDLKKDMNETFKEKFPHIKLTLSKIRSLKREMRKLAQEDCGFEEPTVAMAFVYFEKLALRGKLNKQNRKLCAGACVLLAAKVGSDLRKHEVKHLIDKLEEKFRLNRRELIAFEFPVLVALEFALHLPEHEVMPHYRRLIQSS

Compound: CC(=O)[C@H]1CC[C@H]2[C@@H]3CCC4=CC(=O)CC[C@]4(C)[C@H]3CC[C@]12C [Progestin, progesterone]
- Cables mRNA levels [1]: dose dependent elevation
- Cables mRNA levels [2]: dose dependent elevation

Compound: Wee1 (from UniProt P30291 1-646) (enzyme)
- level of tyrosine phosphorylation of cdk2 (cdk2 immunoprecipitation, antiphosphotyrosine western blot, COS7 cells coexpressing Cables and Wee1) (times basal level) (cdk2): 30

Compound: estrogen
- Cables mRNA levels [1]: reduced
- Cables mRNA levels [2]: reduced

Compound: Cables (full length, expressed from a transfected construct)
- Y15-phosphorylated cdk2 in stable Cables cell lines against control cell lines (cdk2 immunoprecipitation, phospho-Tyr15 antibody) (cdk2): 5 fold
